Read-outs that look alike come from different tables or passages of the source.
What was measured:
IMR90 cells = test: DAPI staining assay of surviving cells in replicative senescence model; settings: DAPI signal, 0.5 μM, 48 h, FIG. 2B
Description: Following treatment, the cells were seeded in 96mw. The adherent cells were then fixed with 70% ethanol, incubated for 30 min with a 3 μM DAPI solution; the fluorimetric signal was measured using a multiplate reader (Victor Nivo-Perkin Elmer) set to 350/460 nm (Ligasová A, Koberna K. Quantification of fixed adherent cells using a strong enhancer of the fluorescence of DNA dyes. Sci Rep. 2019 Jun. 18; 9(1):8701. doi: 10.1038/s41598-019-45217-9. PMID: 31213648; PMCID: PMC6581942.).
To confirm data obtained by traditional cell counting by a single operator, a quantification method based on […] was also implemented, exploiting the ability of the DAPI to mark cell nuclei. The cells that survived the action of senolytics were fixed and incubated with the fluorescent indicator. The specific signal was measured using the microplate multimode reader, Victor NIVO (PerkinElmer Tech. GmbH, Germany).

[1] = test system: primary human fetal lung cells IMR90; type: cell-based
From the text: Cell culture and replicative senescence. Fetal pulmonary fibroblasts, IMR90, were provided by the European Collection of Authenticated Cell Culture (ECACC) and grown in a complete medium consisting of Minimum Essential Medium (MEM), 10% Fetal Bovine Serum (FBS), 1% penicillin-streptomycin (antibiotic), 1% L-glutamine. Cells with passages from P15 to P21 were used; cells were considered incrementally senescent from passage P19 to passage P21. […] The cells were fixed in paraformaldehyde 2% and incubated with the substrate, X-gal, in a solution at pH 6, at 37° C., overnight (16 h).
The images were acquired using an optical microscope (Leica) with 5× magnification. The images were analyzed using the ImageJ software, quantifying the colorimetric signal emitted by each cell. The mean signal intensity was then normalized for the total number of cells. Survival curves of the compounds. […] The cells were then counted manually, in triplicate, using disposable burker chambers.
13 compounds including K5, with different structures, were assayed using an in vitro senescence model, that was developed utilizing serial passages of primary human fetal lung cells IMR90. […] Senescence was detected using the “Senescence β-Galactosidase Staining Kit” (#9860S, Cell Signaling Technology, Inc., MA, USA). […]

recombinant HSP90α = molecular target: T1, recombinant HSP90α (Homo sapiens, UniProt P07900); test: HSP90 inhibition activity assay, FITC-geldanamycin competitive binding fluorescence polarization; settings: 1 pM-10 μM, 2 h, FITC-labeled geldanamycin
T1 construct: purchased BPS Bioscience 50293
Description: HSP90 inhibition activity assay. […] Briefly, the compounds were diluted at different concentrations between 1 pM to 10 μM and incubated for 2 h with the enzyme and substrate at RT while stirring.

[2] = Crossing of the blood-brain barrier after administration; settings: in vivo
[3] = rats; cited from earlier work
[4] = dogs; cited from earlier work

| IC50 (recombinant HSP90α) [nM] | Structure (SMILES) | cytotoxic effects in the cellular model IMR90 (IMR90 cells) | reduction of the senescent population ([1]; IMR90 P19-P21, first 48 hours of exposure, FIG. 2A (1 μM)) | senolytic action on cells at passages between P19 and P21 ([1]; IMR90 P19-P21 vs P15-P17, 1 μM, 48 h) | crossing of the blood-brain barrier (BBB) [2] | maximum tolerated dose (MTD) [3] [mg/m^2] | maximum tolerated dose (MTD) [4] [mg/m^2] |
| --- | --- | --- | --- | --- | --- | --- | --- |
|  | CC(C)c1cc(-c2n[nH]c(=O)n2-c2ccc3c(ccn3C)c2)c(O)cc1O [Ganetespib] | cytotoxic effects already at low concentrations and also in early passages |  |  |  |  |  |
| 731 | Cc1ccccc1-n1c(=O)n(Cc2ccccc2)c(=O)c2[nH]cnc21 [Compound Ia, 1-benzyl-3-(2-methylphenyl)-2,3,6,7-tetrahydro-1H-purine-2,6-dione] |  | about 50% | act selectively and significantly | enables the crossing of the blood-brain barrier |  |  |
|  | CO[C@H]1/C=C\C=C(/C)C(=O)NC2=CC(=O)C(NCCN(C)C)=C(C[C@@H](C)C[C@H](OC)[C@H](O)[C@@H](C)/C=C(\C)[C@@H]1OC(N)=O)C2=O [Compound 17-DMAG, 17-dimethylaminoethylamino-17-demethoxygeldanamycin] | cytotoxic effects already at low concentrations and also in early passages |  |  |  | 12 | 8 |

From patent publication US20240425508A1, “COMPOUNDS USEFUL IN PREVENTION AND/OR TREATMENT OF SENESCENT CELL-RELATED PATHOLOGIES AND DISEASES” (ISTITUTI CLINICI SCIENTIFICI MAUGERI SPA SB, priority 2022, published 2024)
